The values that follow are results of earlier work, collected in patent US12297168B2, “Compounds useful for treating liver diseases” (ABIONYX PHARMA SA, priority 2019, dated 2025).

In the data set the test system is NASH resolution without worsening of fibrosis. The note with it: Phase 3 trial, adults with NASH and fibrosis (interim analysis, RESOLVE-IT).

`CSc1ccc(C(=O)/C=C/c2cc(C)c(OC(C)(C)C(=O)O)c(C)c2)cc1` [elafibranor]: the “effect on the primary endpoint of NASH resolution without worsening of fibrosis” value is listed as “did not demonstrate a statistically significant effect”.
